Experimental data: article PMC6886544

Assays:
[1] = target: ABL1-wt (Homo sapiens, UniProt P00519); test: SelectScreen kinase profiling, ABL1-wt; type: biochemical; details: mean ± SD of one measurement in duplicates
Protocol: (§1) Kinase profiling of compound 17a at a concentration of 1 µM generated with the SelectScreen® Profiling Service from Life Technologies.
(§2) Figure S2. Kinase profiling of compound 17a, Illustration as waterfall plot. 9 Kinases harboring a Cysteine isostructural to Cys797 in EGFR are highlighted
(§3) Kinase % inhibition Kinase % inhibition […]
(§4) aValues are the mean ± SD of one measurement in duplicates; bKinases harboring a Cysteine isostructural to Cys797 […]
(§5) (1 picture or pasted object on this page, not shown here)

[2] = target: SRC (Homo sapiens, UniProt P12931); test: SelectScreen kinase profiling, SRC; type: biochemical; details: mean ± SD of one measurement in duplicates
Protocol: as §1, §2, §3, §4, §5

[3] = target: ABL1-Y253F (Homo sapiens, UniProt P00519, Y253F); test: SelectScreen kinase profiling, ABL1-Y253F; type: biochemical; details: mean ± SD of one measurement in duplicates
Protocol: as §1, §2, §3, §4, §5

[4] = target: FGFR1 (Homo sapiens, UniProt P11362); test: SelectScreen kinase profiling, FGFR1; type: biochemical; details: mean ± SD of one measurement in duplicates
Protocol: as §1, §2, §3, §4, §5

[5] = target: EGFR-T790M/L858R (Homo sapiens, UniProt P00533, L858R/T790M); test: SelectScreen kinase profiling, EGFR-T790M/L858R; type: biochemical; details: mean ± SD of one measurement in duplicates
Protocol: as §1, §2, §3, §4, §5

[6] = target: ACVR1B (Homo sapiens, UniProt P36896); test: SelectScreen kinase profiling, ACVR1B; type: biochemical; details: mean ± SD of one measurement in duplicates
Protocol: as §1, §2, §3, §4, §5

[7] = target: ABL2 (Homo sapiens, UniProt P42684); test: SelectScreen kinase profiling, ABL2; type: biochemical; details: mean ± SD of one measurement in duplicates
Protocol: as §1, §2, §3, §4, §5

[8] = target: ABL1-G250E (Homo sapiens, UniProt P00519, G250E); test: SelectScreen kinase profiling, ABL1-G250E; type: biochemical; details: mean ± SD of one measurement in duplicates
Protocol: as §1, §2, §3, §4, §5

[9] = target: EGFR-L858R (Homo sapiens, UniProt P00533, L858R); test: SelectScreen kinase profiling, EGFR-L858R; type: biochemical; details: mean ± SD of one measurement in duplicates
Protocol: as §1, §2, §3, §4, §5

[10] = target: SRC-N1 (Homo sapiens, UniProt P12931); test: SelectScreen kinase profiling, SRC-N1; type: biochemical; details: mean ± SD of one measurement in duplicates
Protocol: as §1, §2, §3, §4, §5

[11] = target: BLK (Homo sapiens, UniProt P51451); test: SelectScreen kinase profiling, BLK; type: biochemical; details: mean ± SD of one measurement in duplicates
Protocol: as §1, §2, §3, §4, §5

[12] = In vivo pharmacokinetics in mice
Protocol: In vivo pharmacokinetics.
To determine the pharmacokinetics of 19h, totally 36 male RjOrl:SWISS (CD1) mice, age 8−10 weeks, body weight (bw) between 29 and 31 g, were purchased from Janvier, Saint-Berthevin Cedex, France. Mice were fed ad libitum with Allein-Futter für Ratten-/Mäusehaltung from Sniff Special Diets GmbH, Germany. They had free access to water and were kept in a 12 h day/night rhythm. All experiments were approved by the local authorities. Pharmacokinetics were studied for the oral (PO), intraperitoneal (IP), and intravenous (IV) route of administration. For the oral and […]
intraperitoneal routes, a stock solution of 2 mg/mL of 19h in a solution consisting of 10% of DMSO and to 90% of an aqueous solution of 30% 2-hydroxypropyl-β-cyclodextrin was prepared. To reach doses of 20 mg/kg bw, 300 μL were administered per 30 g of mouse bw. For the intravenous route of administration, a 2 mg/mL DMSO solution was prepared and 30 μL were applied to a 30 g mouse to reach a concentration of 2 mg/kg bw. Mice were sacrificed 5, 15, 45, and 135 min after administration of the test compound, and approximately 100 μL of blood was taken from the left heart chamber. Three mice were analyzed per time point and route of administration (PO, IP and IV), respectively. Immediately after sampling, blood was centrifuged at 16200g for 10 min at 4 °C and plasma was stored at -80 °C until LC/MS analysis of 19h. Prior to LC-MS/MS analysis, plasma proteins were precipitated with acetonitrile containing an internal standard, and samples were filtered. A calibration curve was obtained from spiked blank plasma samples. 19h was measured using a Shimadzu UPLC system connected to a QTrap 4000 hybrid triple quadrupole/linear ion trap mass spectrometer (AB Sciex). The regression equation of the calibration curve was used to calculate plasma concentrations. Pharmacokinetic parameters were calculated using the PKSolver software2.

[13] = Plasma stability, mouse; type: in vitro ADME; details: 5 µM, 1 h, 37 °C
[14] = Caco-2 assay; type: in vitro ADME; details: human
Protocol: For Caco-2 cell assay, a 10 mM DMSO stock of the compound was diluted to a final concentration of 5 μM in HBSS buffer pH 7.4 and incubated for 2 hours at 37 °C and 5% CO2 on a monolayer of Caco-2 cells (ATCC) that had been grown on a transwell membrane (Millipore, Schwalbach, Germany) for 21 days. The compound concentration was measured in the receiver as well as the donor well. Apparent permeability (Papp) from either the apical to basolateral direction or vice versa […]
is the donor drug concentration at t = 0, and dQ/dt is the amount of drug transported within the given time period of 2 hours. […]

[15] = target: EGFR-L858R/T790M (Homo sapiens, UniProt P00533, L858R/T790M); test: Kinetic characterization (Ki, kinact), EGFR-L858R/T790M
[16] = Microsomal stability (phase I), human; type: in vitro ADME; details: human liver microsomes, up to 50 minutes, 37 °C
Protocol: Microsomal stability (phase I) assay.
Metabolic stability under oxidative conditions was measured in liver microsomes from different
time up to 50 minutes (HLM) or 60 minutes (MLM) at 37 °C. Based on the compound half-life t1/2,
the in vitro intrinsic clearance CLint was calculated. […]

[17] = target: EGFR-wt (Homo sapiens, UniProt P00533); test: Kinetic characterization (Ki, kinact), EGFR-wt
[18] = Plasma protein binding, human; type: in vitro ADME; details: equilibrium dialysis, 37 °C
Protocol: Assessment of plasma protein binding was measured by equilibrium dialysis by incubating plasma
based determination of final compound concentrations. […]

[19] = male, RjOrl:SWISS (CD1), mouse, plasma, IP 20 mg kg-1
[20] = male, RjOrl:SWISS (CD1), mouse, plasma, IP 20 mg kg^–1
[21] = male, RjOrl:SWISS (CD1), mouse, plasma, IV 2 mg kg-1
[22] = male, RjOrl:SWISS (CD1), mouse, plasma, PO 20 mg kg-1

Chain of EGFR-wt (P00533 25-1210): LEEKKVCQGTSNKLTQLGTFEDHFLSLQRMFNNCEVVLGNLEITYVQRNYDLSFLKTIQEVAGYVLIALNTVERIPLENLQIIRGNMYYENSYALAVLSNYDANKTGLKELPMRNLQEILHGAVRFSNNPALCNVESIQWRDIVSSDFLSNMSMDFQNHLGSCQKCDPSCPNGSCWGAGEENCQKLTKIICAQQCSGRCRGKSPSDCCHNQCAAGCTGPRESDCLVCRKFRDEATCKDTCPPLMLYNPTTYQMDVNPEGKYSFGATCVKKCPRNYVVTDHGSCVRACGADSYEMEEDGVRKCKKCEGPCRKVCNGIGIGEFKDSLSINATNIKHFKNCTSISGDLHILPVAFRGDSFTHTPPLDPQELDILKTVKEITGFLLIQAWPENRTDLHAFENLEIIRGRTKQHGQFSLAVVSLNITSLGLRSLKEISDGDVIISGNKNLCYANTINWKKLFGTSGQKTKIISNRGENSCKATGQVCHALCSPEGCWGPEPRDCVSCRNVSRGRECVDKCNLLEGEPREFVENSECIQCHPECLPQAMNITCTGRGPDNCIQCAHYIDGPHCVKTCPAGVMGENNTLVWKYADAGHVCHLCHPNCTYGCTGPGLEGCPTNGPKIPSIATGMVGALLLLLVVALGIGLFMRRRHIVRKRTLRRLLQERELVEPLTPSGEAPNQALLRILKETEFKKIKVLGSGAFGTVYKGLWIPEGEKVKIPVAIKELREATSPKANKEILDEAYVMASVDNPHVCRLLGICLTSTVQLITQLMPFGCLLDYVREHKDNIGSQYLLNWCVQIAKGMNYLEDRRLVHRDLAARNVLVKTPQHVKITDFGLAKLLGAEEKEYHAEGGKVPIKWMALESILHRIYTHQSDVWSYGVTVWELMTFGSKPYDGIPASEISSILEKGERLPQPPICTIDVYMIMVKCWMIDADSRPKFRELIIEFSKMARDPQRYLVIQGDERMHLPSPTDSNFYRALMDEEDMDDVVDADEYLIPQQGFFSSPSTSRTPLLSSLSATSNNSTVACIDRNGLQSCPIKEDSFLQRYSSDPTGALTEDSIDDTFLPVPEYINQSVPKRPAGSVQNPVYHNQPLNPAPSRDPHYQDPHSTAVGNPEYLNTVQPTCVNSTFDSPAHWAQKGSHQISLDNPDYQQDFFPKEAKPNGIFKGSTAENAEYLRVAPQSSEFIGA
Chain of EGFR-L858R/T790M (P00533 25-1210 T790M/L858R): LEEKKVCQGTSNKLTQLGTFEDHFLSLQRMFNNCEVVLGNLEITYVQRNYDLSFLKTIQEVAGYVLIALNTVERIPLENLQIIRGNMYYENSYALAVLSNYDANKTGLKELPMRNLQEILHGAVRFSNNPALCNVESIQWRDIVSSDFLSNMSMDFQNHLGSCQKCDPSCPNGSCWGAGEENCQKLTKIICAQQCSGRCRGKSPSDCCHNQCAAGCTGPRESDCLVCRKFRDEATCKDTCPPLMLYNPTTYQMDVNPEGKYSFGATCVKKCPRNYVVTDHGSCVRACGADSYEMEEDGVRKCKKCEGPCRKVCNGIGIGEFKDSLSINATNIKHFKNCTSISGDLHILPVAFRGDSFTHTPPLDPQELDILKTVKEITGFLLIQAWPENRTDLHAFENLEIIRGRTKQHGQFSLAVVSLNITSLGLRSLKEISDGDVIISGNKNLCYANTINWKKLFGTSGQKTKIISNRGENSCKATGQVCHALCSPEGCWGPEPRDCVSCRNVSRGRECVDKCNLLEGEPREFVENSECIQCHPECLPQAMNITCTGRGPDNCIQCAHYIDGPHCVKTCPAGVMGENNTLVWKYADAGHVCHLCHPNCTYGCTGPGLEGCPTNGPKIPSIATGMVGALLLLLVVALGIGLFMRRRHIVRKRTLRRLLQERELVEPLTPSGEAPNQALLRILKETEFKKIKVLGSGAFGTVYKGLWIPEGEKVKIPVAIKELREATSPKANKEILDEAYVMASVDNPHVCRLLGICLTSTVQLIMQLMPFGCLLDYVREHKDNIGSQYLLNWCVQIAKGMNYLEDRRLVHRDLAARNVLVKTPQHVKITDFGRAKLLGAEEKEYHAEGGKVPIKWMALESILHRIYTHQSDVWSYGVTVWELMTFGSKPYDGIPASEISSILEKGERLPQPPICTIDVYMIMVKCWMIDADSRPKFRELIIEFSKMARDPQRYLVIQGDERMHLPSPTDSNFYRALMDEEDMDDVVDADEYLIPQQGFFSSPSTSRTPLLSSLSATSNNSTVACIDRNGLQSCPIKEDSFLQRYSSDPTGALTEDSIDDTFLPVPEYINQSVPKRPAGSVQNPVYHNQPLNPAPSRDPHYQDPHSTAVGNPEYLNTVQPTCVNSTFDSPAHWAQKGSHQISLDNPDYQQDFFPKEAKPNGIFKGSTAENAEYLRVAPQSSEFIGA
Chain of EGFR-L858R (P00533 25-1210 L858R): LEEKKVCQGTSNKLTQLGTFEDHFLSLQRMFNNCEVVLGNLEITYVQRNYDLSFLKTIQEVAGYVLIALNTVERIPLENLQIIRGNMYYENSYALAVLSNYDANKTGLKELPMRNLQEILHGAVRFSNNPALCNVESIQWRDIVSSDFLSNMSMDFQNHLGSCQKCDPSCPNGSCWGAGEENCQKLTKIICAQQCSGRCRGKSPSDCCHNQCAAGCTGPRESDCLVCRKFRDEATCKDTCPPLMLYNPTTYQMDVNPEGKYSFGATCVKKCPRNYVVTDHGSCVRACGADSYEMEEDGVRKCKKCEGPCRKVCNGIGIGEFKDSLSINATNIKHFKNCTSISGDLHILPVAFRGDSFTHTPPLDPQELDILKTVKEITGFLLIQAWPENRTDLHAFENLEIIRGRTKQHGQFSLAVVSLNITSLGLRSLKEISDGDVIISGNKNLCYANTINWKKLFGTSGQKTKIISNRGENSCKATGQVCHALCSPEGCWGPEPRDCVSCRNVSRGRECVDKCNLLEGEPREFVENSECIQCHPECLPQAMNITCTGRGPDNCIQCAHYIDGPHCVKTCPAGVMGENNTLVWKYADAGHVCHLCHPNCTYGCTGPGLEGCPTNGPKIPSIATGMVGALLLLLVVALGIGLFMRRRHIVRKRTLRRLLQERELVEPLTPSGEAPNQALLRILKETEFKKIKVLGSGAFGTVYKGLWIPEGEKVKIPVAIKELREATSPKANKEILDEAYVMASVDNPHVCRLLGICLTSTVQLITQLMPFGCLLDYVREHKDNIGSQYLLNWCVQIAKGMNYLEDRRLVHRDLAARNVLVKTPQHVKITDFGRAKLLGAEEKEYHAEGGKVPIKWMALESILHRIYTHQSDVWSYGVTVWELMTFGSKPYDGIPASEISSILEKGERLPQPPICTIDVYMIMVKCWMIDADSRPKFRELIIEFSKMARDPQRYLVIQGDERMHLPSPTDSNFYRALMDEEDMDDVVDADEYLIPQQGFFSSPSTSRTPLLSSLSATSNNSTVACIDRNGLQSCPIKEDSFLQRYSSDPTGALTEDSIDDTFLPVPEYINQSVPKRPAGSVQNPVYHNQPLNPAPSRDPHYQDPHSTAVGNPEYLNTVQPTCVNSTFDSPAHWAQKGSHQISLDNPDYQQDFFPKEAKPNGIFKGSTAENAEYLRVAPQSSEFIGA
Chain of ACVR1B (P36896 24-505): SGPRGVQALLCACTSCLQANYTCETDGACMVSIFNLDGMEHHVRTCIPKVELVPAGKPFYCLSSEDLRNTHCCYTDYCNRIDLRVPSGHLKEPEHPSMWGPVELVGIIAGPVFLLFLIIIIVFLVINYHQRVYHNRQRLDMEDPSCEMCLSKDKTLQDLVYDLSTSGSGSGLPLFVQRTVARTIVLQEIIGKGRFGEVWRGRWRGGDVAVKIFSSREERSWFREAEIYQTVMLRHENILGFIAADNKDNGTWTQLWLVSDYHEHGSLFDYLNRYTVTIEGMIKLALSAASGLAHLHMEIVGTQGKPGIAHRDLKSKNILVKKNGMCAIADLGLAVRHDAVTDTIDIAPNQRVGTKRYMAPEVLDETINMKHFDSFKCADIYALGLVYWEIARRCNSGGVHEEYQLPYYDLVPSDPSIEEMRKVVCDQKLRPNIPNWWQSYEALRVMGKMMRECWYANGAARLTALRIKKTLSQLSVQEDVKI
Chain of SRC-N1 (P12931 1-542 isoform P12931-2): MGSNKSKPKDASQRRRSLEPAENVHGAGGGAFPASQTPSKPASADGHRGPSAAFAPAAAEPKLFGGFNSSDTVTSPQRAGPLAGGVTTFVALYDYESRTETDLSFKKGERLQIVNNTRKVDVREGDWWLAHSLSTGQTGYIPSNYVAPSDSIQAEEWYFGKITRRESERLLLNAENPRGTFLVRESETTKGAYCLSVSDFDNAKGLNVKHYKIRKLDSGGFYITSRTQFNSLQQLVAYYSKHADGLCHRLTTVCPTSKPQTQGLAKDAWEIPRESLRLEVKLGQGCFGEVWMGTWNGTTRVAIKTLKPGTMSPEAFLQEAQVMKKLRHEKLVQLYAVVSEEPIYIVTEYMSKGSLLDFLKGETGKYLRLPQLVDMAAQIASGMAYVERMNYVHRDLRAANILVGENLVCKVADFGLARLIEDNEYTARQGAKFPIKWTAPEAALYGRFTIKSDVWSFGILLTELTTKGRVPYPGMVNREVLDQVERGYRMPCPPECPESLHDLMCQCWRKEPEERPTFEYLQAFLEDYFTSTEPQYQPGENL
Chain of BLK (P51451 whole entry): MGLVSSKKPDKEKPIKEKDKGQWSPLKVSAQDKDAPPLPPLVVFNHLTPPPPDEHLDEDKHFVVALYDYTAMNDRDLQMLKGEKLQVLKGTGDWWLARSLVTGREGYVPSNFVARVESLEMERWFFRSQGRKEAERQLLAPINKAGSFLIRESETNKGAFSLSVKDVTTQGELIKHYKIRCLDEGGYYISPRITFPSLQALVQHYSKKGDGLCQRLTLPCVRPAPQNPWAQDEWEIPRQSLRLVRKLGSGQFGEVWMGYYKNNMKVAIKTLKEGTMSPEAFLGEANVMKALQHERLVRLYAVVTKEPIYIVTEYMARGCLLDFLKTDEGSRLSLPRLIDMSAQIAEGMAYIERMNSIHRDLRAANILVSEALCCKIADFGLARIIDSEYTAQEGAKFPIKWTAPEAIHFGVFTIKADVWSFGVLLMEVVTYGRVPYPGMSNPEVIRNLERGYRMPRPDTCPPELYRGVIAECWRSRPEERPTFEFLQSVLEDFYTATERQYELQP

C=CC(=O)Nc1cccc(-c2c(-c3ccc(CN4CCN(C)CC4)cc3)[nH]c3ncnc(OC)c23)c1 [Compound 17a]
inhibition at 1 µM [1]: 89%
inhibition at 1 µM [2]: 81 ± 1%
inhibition at 1 µM [3]: 94%
inhibition at 1 µM [4]: 72 ± 4%
inhibition at 1 µM [5]: 88 ± 1%
inhibition at 1 µM [6]: 89%
inhibition at 1 µM [7]: 86%
inhibition at 1 µM [8]: 96%
inhibition at 1 µM [9]: 89 ± 6%
inhibition at 1 µM [10]: 95 ± 1%
inhibition at 1 µM [11]: 99 ± 1%

C=CC(=O)Nc1cccc(-c2c(-c3ccc(N4CCN(C)CC4)cc3)[nH]c3ncnc(OCC(C)C)c23)c1 [Compound 19h]
F0-t ([12]; IP 20 mg kg-1): 258%
t1/2 ([12]; IP 20 mg kg-1): 1.2 h
Cmax, free ([12]; IP 20 mg kg^–1): 0.012 µM
F0-t ([12]; PO 20 mg kg-1): 9%
time blood plasma concentration maintained above in vitro EC50 in H1975 cells ([12]; after both IP and PO): more than two hours
AUC(0-t) [12, 19]: 2870 ng·h/mL
Cmax [12, 19]: 1770 ng/mL
AUC [12, 20]: 8.6 ng·h/mL
Cmax [12, 20]: 3.5 µM
AUC(0-t) [12, 21]: 111 ng·h/mL
C0 [12, 21]: 258 ng/mL
clearance [12, 21]: 250 mL/min/kg
Vd ([12]; male, RjOrl:SWISS (CD1), mouse, plasma, IV 2 mg kg-1, read-out: Vss): 16 L/kg
AUC(0-t) [12, 22]: 101 ng·h/mL
Cmax [12, 22]: 56 ng/mL
half-life ([12]; male, RjOrl:SWISS (CD1), mouse, plasma, ip, 20 mg/kg, IP 20 mg kg-1): 1.21 h
half-life ([12]; male, RjOrl:SWISS (CD1), mouse, plasma, iv, 2 mg/kg, IV 2 mg kg-1): 0.89 h
Plasma stability [13]: 100 %remain
efflux ratio at 2 h, 5 µM ([14]; Caco-2, pH 7.4, efflux ratio, read-out: Caco-2: ratio (BA) : (AB)): 3.1
Papp A→B at 2 h, 5 μM ([14]; Caco-2, apical to basolateral, 5 μM, pH 7.4, 2 hours, read-out: Caco-2: Papp AB): 1.2 ×10⁻⁶ cm/s
Papp B→A at 2 h, 5 μM ([14]; Caco-2, basolateral to apical, 5 μM, pH 7.4, 2 hours, read-out: Caco-2: Papp BA): 3.6 ×10⁻⁶ cm/s
Ki [15]: 0.4 ± 0.1 nM
kinact [15]: 0.00283 s⁻¹
kinact/KI [15]: 8.08e+06 ± 770000 M⁻¹ s⁻¹
microsomal CLint at 3 µM [16]: 6.7 µL/min/mg
Ki [17]: 0.4 ± 0.1 nM
kinact [17]: 0.000833 s⁻¹
kinact/KI [17]: 1.98e+06 ± 220000 M⁻¹ s⁻¹
fraction unbound at 6 h, 5 µM [18]: 0.001
